Measurements as given in ChEMBL document CHEMBL1201862, “PubChem BioAssay data set” (2004).
Active and inactive are the calls of the source.

Assays:
Aminopeptidase N = target: T1, Aminopeptidase N (Plasmodium falciparum FcB1/Columbia, UniProt O96935); assay: P. falciparum M1AAP inhibitors, biochemical, fluorogenic H-Leu-NHMec substrate, 1536-well (AID 1445); set-up: species or system Plasmodium falciparum 3D7, 3D7
T1 sequence (O96935 whole entry): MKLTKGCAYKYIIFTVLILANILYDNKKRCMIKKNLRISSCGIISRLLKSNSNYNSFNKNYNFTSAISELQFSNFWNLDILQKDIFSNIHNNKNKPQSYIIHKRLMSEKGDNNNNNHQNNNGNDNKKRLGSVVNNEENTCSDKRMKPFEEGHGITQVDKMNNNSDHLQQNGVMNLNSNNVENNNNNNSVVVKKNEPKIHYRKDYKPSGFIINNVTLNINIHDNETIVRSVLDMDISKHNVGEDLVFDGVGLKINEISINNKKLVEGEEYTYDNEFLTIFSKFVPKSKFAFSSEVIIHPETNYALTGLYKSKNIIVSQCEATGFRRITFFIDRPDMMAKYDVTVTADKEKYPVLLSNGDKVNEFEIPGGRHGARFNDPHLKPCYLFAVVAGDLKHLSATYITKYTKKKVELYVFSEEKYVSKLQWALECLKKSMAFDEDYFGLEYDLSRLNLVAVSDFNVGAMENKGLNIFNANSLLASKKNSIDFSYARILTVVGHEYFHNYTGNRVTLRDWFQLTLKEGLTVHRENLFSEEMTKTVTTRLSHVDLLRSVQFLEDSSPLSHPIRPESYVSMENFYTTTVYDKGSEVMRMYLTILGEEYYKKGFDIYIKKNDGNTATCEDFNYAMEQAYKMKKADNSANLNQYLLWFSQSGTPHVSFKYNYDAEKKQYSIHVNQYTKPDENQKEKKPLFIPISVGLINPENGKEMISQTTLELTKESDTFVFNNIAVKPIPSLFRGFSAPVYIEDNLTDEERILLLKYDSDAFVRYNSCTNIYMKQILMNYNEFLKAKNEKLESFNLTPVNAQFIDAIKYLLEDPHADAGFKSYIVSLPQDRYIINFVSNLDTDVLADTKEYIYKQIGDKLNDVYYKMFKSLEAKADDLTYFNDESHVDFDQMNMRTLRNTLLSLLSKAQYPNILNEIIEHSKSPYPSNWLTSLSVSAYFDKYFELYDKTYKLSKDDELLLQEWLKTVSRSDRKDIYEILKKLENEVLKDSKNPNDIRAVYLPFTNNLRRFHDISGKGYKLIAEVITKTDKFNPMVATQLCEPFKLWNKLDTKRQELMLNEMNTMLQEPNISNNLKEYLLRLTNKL

[1] = target: Eukaryotic translation initiation factor 4H (Homo sapiens, UniProt Q15056); assay: human eIF4H binding inhibitors, primary screen, translation initiation inhibitor project, biochemical, uHTS, fluorescence polarization (AID 2012)
[2] = target: Polyadenylate-binding protein 1 (Homo sapiens, UniProt P11940); assay: PABP poly(A) RNA binding inhibitors, primary screen, biochemical, fluorescence polarization, uHTS (AID 2014)
[3] = Luminescence Cell-Based Dose Confirmation HTS to Identify Activators of 5'UTR Stem-Loop Driven Alpha-Synuclein mRNA Translation in H4 Neuroglioblastoma Cells. [Related pubchem assays: 1829 (Project Summary), 1814 (Primary HTS)]; format: functional
[4] = cytotoxicity toward NIH3T3 fibroblasts, dose response, counter-screen, cell-based, ATP luminescence, mouse fibroblasts (AID 2010); format: functional;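 further: cells exposed to compound for about 90 hours before reading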
Genome polyprotein = Genome polyprotein (dengue virus type 2, UniProt P29990); assay: Dengue-2 NS5 methyltransferase inhibitors, primary screen, biochemical, confirmation dose response (AID 588689); format: functional
[5] = HEp-2 cell cytotoxicity, dose response, cytotoxicity control for RSV inhibitor project, HTS (AID 2410); format: functional; details: human respiratory syncytial virus
[6] = Luminescence Cell-Based Dose Response HTS to Identify Activators of Luciferase Translation or Activity in H4 […] Cells. [Related pubchem assays: 1829 (Project Summary), 1814 (Primary HTS)]; format: functional
[7] = inhibitors of intracellular T. cruzi replication, confirmation, NIH3T3 host cells, beta-gal luminescence (AID 2044); format: functional, cell-based;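 further: intracellular parasites grown in NIH/3T3 mouse fibroblasts as host cells; luminescent beta-galactosidase reporter signal from transgenic T. cruzi replicating inside host cells; inhibitors lower the luminescence signal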
H4 = assay: Luminescence Cell-Based Dose Response HTS to Identify Activators of 5'UTR Stem-Loop Driven Prion Protein mRNA Translation in H4 Neuroglioblastoma Cells. [Related pubchem assays: 1829 (Project Summary), 1814 (Primary HTS)]; format: functional; details: Homo sapiens
[8] = target: DNA dC->dU-editing enzyme APOBEC-3G (Homo sapiens, UniProt Q9HC16); format: functional;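 further: Dose-response counterscreen measuring inhibition of APOBEC3G DNA deaminase activity, run while confirming APOBEC3A inhibitors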
[9] = target: DNA dC->dU-editing enzyme APOBEC-3A (Homo sapiens, UniProt P31941); assay: Dose Response confirmation of small molecule APOBEC3A DNA Deaminase Inhibitors via a fluorescence-based single-stranded DNA deaminase assay. [Related pubchem assays (depositor defined):AID493011, AID493024]; format: functional
[10] = target: T2, Short transient receptor potential channel 4 (Mus musculus, UniProt Q9QUQ5); assay: mouse TRPC4 channel inhibitors, dose response, cell-based, HEK293 TRPC4/mu-opioid, Fluo-4 calcium (AID 434942); format: functional;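 further: potency of inhibitors blocking the TRPC4 calcium response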
T2 sequence (Q9QUQ5 whole entry): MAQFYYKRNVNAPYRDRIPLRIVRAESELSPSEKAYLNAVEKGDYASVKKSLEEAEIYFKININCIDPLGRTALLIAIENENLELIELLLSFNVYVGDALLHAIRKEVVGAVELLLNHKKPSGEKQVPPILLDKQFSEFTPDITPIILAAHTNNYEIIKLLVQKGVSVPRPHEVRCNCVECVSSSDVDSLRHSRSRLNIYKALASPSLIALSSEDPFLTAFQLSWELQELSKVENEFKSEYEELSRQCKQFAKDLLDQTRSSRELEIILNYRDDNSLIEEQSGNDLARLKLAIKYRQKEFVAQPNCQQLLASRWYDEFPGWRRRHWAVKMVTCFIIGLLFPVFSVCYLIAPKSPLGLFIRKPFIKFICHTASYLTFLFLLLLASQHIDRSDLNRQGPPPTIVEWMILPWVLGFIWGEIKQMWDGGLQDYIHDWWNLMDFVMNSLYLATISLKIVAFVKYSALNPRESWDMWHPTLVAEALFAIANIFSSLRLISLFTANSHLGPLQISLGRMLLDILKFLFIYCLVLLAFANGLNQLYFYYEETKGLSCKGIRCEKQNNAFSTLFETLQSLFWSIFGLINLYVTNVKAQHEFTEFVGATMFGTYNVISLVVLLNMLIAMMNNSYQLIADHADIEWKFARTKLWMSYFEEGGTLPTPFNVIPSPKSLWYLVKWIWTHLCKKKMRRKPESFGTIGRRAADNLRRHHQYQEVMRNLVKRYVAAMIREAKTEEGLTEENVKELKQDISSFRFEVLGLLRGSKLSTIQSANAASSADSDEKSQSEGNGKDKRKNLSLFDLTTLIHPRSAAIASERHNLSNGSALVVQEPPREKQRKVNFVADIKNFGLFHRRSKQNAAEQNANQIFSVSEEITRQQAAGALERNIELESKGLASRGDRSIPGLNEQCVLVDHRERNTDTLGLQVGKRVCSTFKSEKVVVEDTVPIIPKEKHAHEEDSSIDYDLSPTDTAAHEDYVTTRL

X-box-binding protein 1 = target: T3, X-box-binding protein 1 (Homo sapiens, UniProt P17861); format: functional, Cricetulus griseus;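 further: confirmatory dose-response counter-screen serving a CHOP assay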
T3 sequence (P17861 whole entry): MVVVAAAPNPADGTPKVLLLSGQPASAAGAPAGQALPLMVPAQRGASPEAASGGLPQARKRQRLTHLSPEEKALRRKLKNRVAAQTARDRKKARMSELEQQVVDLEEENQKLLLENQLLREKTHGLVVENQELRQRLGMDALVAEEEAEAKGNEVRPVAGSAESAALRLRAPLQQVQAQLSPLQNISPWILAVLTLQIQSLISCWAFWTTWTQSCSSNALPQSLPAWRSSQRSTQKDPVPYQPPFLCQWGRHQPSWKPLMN

[11] = target: Alkaline phosphatase, placental type (Homo sapiens, UniProt P05187); assay: PLAP enzyme inhibitors, confirmation, biochemical, luminescence (AID 1512); format: functional
[12] = A Cell Based Secondary Assay To Explore Cytotoxicity of Compounds that Sensitize Mycobacterium Tuberculosis to Beta-Lactam Antibiotics.; format: functional
[13] = growth suppression of beta-catenin-knockout colon cells, dose response, cell-based, HCT116, human colon tumor (AID 1045); format: functional;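 further: HCT116 colon tumor cells with beta catenin knocked out; cells exposed to compound for 60 hours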
[14] = growth suppression of PTEN-null colon cells, dose response, cell-based, HCT116 PTEN knockout (AID 1047); format: functional;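 further: HCT116 colon tumor cells with PTEN knocked out; cells exposed to compound for 60 hours before readout; potency for loss of cell viability measured by luminescence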
Prothrombin = Prothrombin (Homo sapiens, UniProt P00734); assay: Thrombin 1536 HTS Dose Response Confirmation. [Related pubchem assays: 1046 (Thrombin 1536 HTS; hits were confirmed in this assay)]; format: functional
[15] = NIH-3T3 fibroblast cytotoxicity, dose response, cytotoxicity control, cell-based, fluorescence, Alamar Blue, secondary assay (AID 2327); format: functional;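 further: NIH-3T3 mouse fibroblasts cultured with fluconazole at 8 µg/mL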
[16] = C. albicans growth with fluconazole, confirmation, fluorescence, retest (AID 2467); format: functional, cell-based
[17] = Luminescence Cell-Based Dose Retest to Confirm Inhibitors of Cancer Stem Cells. [Related pubchem assays (depositor defined):AID2717, AID2721]; format: functional; details: Homo sapiens
Kallikrein-7 = Kallikrein-7 (Homo sapiens, UniProt P49862); assay: Fluorescence Intensity-based biochemical primary high throughput dose response assay to identify activators of kallikrein-7 (K7) zymogen.
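Wherever AC50 is given: cells exposed to compound for roughly 70 hours or longer before luminescence read.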

Polyadenylate-binding protein 1, sequence (P11940 whole entry): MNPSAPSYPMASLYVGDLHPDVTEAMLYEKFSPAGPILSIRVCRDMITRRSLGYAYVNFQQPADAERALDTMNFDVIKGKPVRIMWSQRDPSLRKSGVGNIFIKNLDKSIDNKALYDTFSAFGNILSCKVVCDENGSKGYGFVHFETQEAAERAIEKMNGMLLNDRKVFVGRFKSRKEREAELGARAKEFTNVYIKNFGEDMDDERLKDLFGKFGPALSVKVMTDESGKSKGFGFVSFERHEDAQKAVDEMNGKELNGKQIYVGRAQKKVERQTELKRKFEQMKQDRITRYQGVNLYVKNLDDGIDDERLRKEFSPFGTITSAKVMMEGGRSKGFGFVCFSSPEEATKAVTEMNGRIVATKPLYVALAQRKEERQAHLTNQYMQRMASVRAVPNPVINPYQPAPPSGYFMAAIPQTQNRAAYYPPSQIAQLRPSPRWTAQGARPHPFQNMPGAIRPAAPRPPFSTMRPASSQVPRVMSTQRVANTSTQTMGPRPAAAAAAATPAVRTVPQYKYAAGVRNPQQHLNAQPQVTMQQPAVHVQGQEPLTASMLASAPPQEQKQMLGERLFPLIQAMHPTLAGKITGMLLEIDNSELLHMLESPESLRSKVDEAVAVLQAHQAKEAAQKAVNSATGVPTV
DNA dC->dU-editing enzyme APOBEC-3A, sequence (P31941 whole entry): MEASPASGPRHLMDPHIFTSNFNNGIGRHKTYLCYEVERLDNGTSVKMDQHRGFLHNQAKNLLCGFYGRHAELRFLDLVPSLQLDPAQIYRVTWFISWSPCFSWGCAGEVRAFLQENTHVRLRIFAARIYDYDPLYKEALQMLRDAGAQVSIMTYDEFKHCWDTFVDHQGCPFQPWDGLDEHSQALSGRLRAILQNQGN
DNA dC->dU-editing enzyme APOBEC-3G, sequence (Q9HC16 whole entry): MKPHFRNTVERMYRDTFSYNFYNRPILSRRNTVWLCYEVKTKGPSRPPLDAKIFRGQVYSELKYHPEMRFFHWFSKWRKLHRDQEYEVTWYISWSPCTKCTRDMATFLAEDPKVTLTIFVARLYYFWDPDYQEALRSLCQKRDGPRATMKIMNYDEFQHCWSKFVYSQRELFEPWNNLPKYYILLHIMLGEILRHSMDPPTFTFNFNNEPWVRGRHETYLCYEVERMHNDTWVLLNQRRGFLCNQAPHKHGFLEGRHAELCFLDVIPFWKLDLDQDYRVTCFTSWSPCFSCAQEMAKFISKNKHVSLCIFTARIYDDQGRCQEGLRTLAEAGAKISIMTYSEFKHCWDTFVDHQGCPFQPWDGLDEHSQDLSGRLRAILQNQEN
Genome polyprotein, sequence (P29990 2492-3391 limits assumed): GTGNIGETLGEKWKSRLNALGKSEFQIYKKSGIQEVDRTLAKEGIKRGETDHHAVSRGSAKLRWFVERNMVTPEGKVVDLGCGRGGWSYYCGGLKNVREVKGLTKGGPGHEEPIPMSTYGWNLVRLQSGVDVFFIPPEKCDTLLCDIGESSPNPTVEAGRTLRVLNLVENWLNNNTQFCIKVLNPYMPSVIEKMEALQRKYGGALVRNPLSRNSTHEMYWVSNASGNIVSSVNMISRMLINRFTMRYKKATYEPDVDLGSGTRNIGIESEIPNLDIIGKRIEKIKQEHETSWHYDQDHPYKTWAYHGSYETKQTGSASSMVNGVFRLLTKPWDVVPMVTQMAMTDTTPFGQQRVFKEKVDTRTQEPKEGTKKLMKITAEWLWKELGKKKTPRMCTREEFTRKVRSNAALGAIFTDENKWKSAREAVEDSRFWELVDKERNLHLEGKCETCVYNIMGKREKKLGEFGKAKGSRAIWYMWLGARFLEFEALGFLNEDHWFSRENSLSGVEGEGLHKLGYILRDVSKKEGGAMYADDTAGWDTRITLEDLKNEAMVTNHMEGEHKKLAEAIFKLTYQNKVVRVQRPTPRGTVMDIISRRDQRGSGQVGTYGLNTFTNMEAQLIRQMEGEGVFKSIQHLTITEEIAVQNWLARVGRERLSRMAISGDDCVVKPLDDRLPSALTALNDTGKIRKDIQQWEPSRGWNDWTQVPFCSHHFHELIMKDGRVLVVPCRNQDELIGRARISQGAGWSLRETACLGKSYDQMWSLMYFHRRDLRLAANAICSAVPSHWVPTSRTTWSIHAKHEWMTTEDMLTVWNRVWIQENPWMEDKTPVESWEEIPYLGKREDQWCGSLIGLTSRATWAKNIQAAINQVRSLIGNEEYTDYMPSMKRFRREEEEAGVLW
Alkaline phosphatase, placental type, sequence (P05187 whole entry): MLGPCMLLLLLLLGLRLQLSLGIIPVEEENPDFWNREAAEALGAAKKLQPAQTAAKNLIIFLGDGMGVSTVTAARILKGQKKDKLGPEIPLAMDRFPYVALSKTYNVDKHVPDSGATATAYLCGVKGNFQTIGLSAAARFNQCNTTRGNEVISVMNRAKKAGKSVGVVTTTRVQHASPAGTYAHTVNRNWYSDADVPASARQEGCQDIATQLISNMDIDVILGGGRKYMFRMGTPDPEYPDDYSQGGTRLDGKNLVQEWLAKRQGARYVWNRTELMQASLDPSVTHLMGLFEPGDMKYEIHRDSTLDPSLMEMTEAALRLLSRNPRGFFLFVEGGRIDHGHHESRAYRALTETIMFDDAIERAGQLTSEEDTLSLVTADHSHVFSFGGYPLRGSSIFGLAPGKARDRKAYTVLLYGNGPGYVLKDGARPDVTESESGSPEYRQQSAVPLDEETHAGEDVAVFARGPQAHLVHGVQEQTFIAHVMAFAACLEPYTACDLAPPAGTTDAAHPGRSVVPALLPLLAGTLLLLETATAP
Kallikrein-7, sequence (P49862 whole entry): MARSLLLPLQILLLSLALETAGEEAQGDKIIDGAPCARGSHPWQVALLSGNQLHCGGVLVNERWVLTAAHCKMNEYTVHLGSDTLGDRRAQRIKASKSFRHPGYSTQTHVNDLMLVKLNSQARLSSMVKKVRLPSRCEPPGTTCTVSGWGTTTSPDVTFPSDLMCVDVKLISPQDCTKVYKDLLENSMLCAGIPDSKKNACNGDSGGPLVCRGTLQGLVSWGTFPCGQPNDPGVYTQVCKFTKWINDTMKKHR

Cc1ccc(C(=O)NCC(=O)OCC(=O)NC(C)c2ccccc2)s1 (stereo not given)
IC50 (Aminopeptidase N): 39.6 µM (active)

CC1=CC(C)C(CN(CCC[N+](C)(C)C)C(=O)Nc2ccccc2)C(C)C1 (stereo not given)
IC50 [1]: > 100 µM (inactive) | IC50 [2]: 4.08 µM (active)

Cc1[nH]c2ccccc2c1/C=C1\SC(=S)N(c2cccc(C(=O)O)c2)C1=O
IC50 (Aminopeptidase N): 55.9 µM (active)

O=C(NC(=S)Nc1ccccc1C(=O)O)c1ccc(-c2ccc(Br)cc2)o1
EC50 [3]: 71.2 µM (active) | EC50 [4]: > 60 µM (not active) | IC50 (Genome polyprotein): 42.2 µM (active) | CC50 [5]: 19 µM (active) | EC50 [6]: 12.5 µM (active) | EC50 [7]: 2.13 µM (active) | EC50 (H4): 22.1 µM (active) | IC50 (cells): 6.21 µM (active)

COC(=O)CCCCCCCCC(O)C[N+]1(C)CCOCC1 (stereo not given)
IC50 [8]: 3.49 µM (active) | IC50 [9]: 2.36 µM (active) | IC50 [1]: > 100 µM (inactive) | IC50 [2]: 2.48 µM (active)

CC1(C)CC2CC(C)(CN2CC(O)COc2ccccc2)C1 (stereo not given)
EC50 [10]: 1.88 µM (active)

Cn1c(=O)cc(SCC(=O)NCCC2=CCCCC2)c2ccc(Cl)cc21
Absolute IC50 (XBP1) (X-box-binding protein 1): 10 µM

CCCCCCCCCCSc1nnc(NC(C)=O)[nH]1
IC50 [11]: > 100 µM (inactive)

C[C@H]1C=CC(=O)O[C@H]1c1ccccc1
CC50 [12]: 22.9 µM (active)

Cc1nn2c(NCCCN(C)C)c3c(nc2c1-c1ccccc1)CCC3
EC50 [4]: > 60 µM (not active) | EC50 [13]: 15.9 µM (active) | EC50 [14]: 15.9 µM (active) | IC50 (Prothrombin): > 50 µM (not active) | EC50 [7]: 0.625 µM (active)

COc1ccc(N(C(=O)c2ccco2)S(=O)(=O)c2ccc(F)cc2)cc1
IC50 (Prothrombin): 17.5 µM (active)

C=CCN(C(=O)Nc1ccc2c(c1)nc(C)n2C)c1ccccc1
IC50 (Prothrombin): > 50 µM (not active)

CCn1c(SCC(=O)NCc2ccccc2)nnc1C(CO)NC(=O)c1ccccc1 (stereo not given)
IC50 [8]: 4.48 µM (active) | IC50 [9]: 3.67 µM (active) | IC50 [1]: > 100 µM (inactive) | IC50 [2]: 6.06 µM (active)

NNC(=O)Cn1c(-c2nonc2N)nc2ccccc21
IC50 (Aminopeptidase N): 58.2 µM (active)

COC(=O)c1c(C)n(-c2ccccc2)c2ccc(O)cc12
EC50 [15]: 2.59 µM (inconclusive) | EC50 [16]: > 38 µM (not active) | CC50 [12]: > 40 µM (active)

O=C(c1ccc2c(c1)OCO2)C1CCCN(Cc2ccccc2OC(F)F)C1 (stereo not given)
EC50 [10]: 2.99 µM (active)

CCOC(=O)N1CCC(n2c(=S)[nH]c3cc(OCC)c(OCC)cc3c2=O)CC1
Absolute IC50 (XBP1) (X-box-binding protein 1): 10 µM

OCCCNc1cc(-c2ccccc2)nc2cc(-c3ccc(F)cc3)nn12
AC50 [17]: 6.05 µM (active) | CC50 [5]: > 50 µM (active) | IC50 (cells): 22.4 µM (active)

CCCCCC(=O)Nc1cccc(C2=NOC3(C2)C[C@@H](C(N)=O)N(C(=O)CC(c2ccccc2)c2ccccc2)C3)c1 (stereo not given in full)
EC50 [4]: > 60 µM (not active) | EC50 [7]: 0.396 µM (active) | CC50 [12]: > 40 µM (active)

COC(=O)c1ccc(C2C(C#N)=C(C)N=C3CC(C)(C)CC(O)=C32)cc1 (stereo not given)
EC50 (Kallikrein-7): 20.8 µM (inactive)

CCC(C)NCCOc1cc(C)cc(C)c1C (stereo not given)
IC50 (Prothrombin): > 50 µM (not active)

COCCCNc1cc(C)nc2ccccc12
EC50 [10]: 3.76 µM (active)

COc1ccc(/C=N/Nc2nc(-c3ccc(C)cc3)c(NC(C)=O)s2)cc1
CC50 [12]: > 40 µM (active)

CC[N+](C)(CC)CCC/C(=N/O)C(O)(c1ccccc1)c1ccccc1
IC50 [1]: > 100 µM (inactive) | IC50 [2]: 5.57 µM (active)

CC(=O)OC[C@]12CCC(C)=C[C@H]1O[C@@H]1[C@H](O)[C@@H](OC(C)=O)[C@@]2(C)[C@]12CO2 [ANGUIDIN]
Absolute IC50 (XBP1) (X-box-binding protein 1): 0.16 µM
